Patent US11066392B2, “Inhibitors of indoleamine 2,3-dioxygenase and methods of their use” (BRISTOL-MYERS SQUIBB COMPANY, priority 2017, dated 2021)
Read-outs that look alike come from different tables or passages of the source.

Biological target: indoleamine 2,3-dioxygenase (IDO) (Homo sapiens, UniProt P14902)
Assay: HeLa cell-based indoleamine 2,3-dioxygenase (IDO) assay (kynurenine production, IFNγ-stimulated)
Conditions: HeLa cells
Protocol: Assessment of inhibitor activity in HeLa cell-based indoleamine 2,3-dioxygenase (IDO) assay. HeLa (ATCC® CCL-2) cells were obtained from the ATCC® and cultured in Dulbecco's Modified Eagle Medium supplemented with 4.5 g/L glucose, 4.5 […] sodium pyruvate (#10-013-CV, Corning), 2 mM L-alanyl-L-glutamine dipeptide (#35050-061, Gibco), 100U/mL penicillin, 100 μg/mL streptomycin (#SV30010, HyClone) and 10% fetal bovine serum (#SH30071.03 HyClone). Cells were maintained in a humidified incubator at 37° C. in 5% CO2. […] After 24 hours, the media was aspirated and replaced with media containing IFNγ (#285-IF/CF, R&D Systems) at a final concentration of 25 ng/mL. A serial dilution of each test compound was added to the cells in a total volume of 200 μL of culture medium. After a further 48 hour incubation, 170 μL of supernatant was transferred from each well to a fresh 96-well plate. 12.1 μL of 6.1N trichloroacetic acid (#T0699, Sigma-Aldrich) was added to each well and mixed, followed by incubation at 65° C. for 20 minutes to hydrolyze N-formylkynurenine, the product of indoleamine 2,3-dioxygenase, to kynurenine. The reaction mixture was then centrifuged for 10 mins at 500×g to sediment the precipitate. 100 μL of the supernatant was transferred from each well to a fresh 96-well plate. 100 μl of 2% (w/v) p-dimethylaminobenzaldehyde (#15647-7, Sigma-Aldrich) in acetic acid (#A6283, Sigma-Aldrich) was added to each well mixed and incubated at room temperature for 20 mins. Kynurenine concentrations were determined by measuring absorbance at 480 nm and calibrating against an L-kynurenine (#K8625, Sigma-Aldrich) standard curve using a SPECTRAMAX® M2e microplate reader (Molecular Devices). The percentage activity at each inhibitor concentration was determined and IC50 values assessed using nonlinear regression. Activity for compounds described herein is provided in Table 1, wherein potency levels are provided as follows: (Potency: IDO IC50: […])

[1] = potency class, read-out: Patent Potency Hela IC50 A < 10 nM, B > 10 nM, C > 100 nM
[2] = IFNγ 25 ng/mL, 48 hour incubation, read-out: IDO Hela IC50

Sequence of indoleamine 2,3-dioxygenase (IDO) (P14902 whole entry): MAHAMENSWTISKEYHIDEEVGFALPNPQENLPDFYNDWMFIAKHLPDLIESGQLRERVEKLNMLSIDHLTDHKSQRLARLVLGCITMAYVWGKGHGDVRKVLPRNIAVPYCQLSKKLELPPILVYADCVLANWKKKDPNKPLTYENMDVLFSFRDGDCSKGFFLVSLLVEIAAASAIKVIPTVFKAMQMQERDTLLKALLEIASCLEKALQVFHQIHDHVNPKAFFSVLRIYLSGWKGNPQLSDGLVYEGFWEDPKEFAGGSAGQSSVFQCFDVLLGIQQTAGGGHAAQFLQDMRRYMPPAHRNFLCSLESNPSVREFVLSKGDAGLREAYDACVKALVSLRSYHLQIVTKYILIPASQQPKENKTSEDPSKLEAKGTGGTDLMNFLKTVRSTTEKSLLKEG

SMILES | IC50 [1] [nM] | IC50 [2] [nM]
CCC(NC(=O)c1ccc(OC)nc1)C1CCC(c2cccc(=O)n2C)CC1 (single isomer, unassigned) [Example 32d, 6-Methoxy-N-(1-(4-(1-methyl-6-oxo-1,6-dihydropyridin-2-yl)cyclohexyl)propyl)nicotinamide] | > 100 | 
CC[C@H](NC(=O)c1ccc(OC)nc1)[C@H]1CC[C@@H](c2cncc(OC)c2)CC1 (single isomer, unassigned) [Example 50b, 6-methoxy-N-(1-(4-(5-methoxypyridin-3-yl)cyclohexyl)propyl)nicotinamide] |  | 250
CCC(NC(=O)c1ccc(OC)nc1)C1CCC(c2ccnc3c(F)cc(F)cc23)CC1 (single isomer, unassigned) [Example 57b] | < 10 | 
CCC(NC(=O)c1ccnc(N2CCOCC2)c1)C1CCC(c2ccnc(OC)c2C(F)F)CC1 (single isomer, unassigned) [Example 26a, N-(1-((1s,4s)-4-(3-(Difluoromethyl)-2-methoxypyridin-4-yl)cyclohexyl)propyl)-2-morpholinoisonicotinamide] | > 100 | 
CCC(NC(=O)c1ccc(OC)nc1)C1CCC(c2ccnc3cc(C(F)(F)F)ccc23)CC1 (single isomer, unassigned) [Example 19a, 6-Methoxy-N-(1-((1s,4s)-4-(7-(trifluoromethyl)quinolin-4-yl)cyclohexyl)propyl)nicotinamide] | > 100 | 
COc1ccc(C(=O)N[C@H](CC2(C)COC2)[C@H]2CC[C@@H](c3ccnc4ccc(C(F)(F)F)cc43)CC2)cn1 (single isomer, unassigned) [Example 17c, 6-Methoxy-N-(2-(3-methyloxetan-3-yl)-1-(4-(6-(trifluoromethyl)quinolin-4-yl)cyclohexyl)ethyl)nicotinamide] | > 100 | 
CCC(NC(=O)c1ccc(OC)nc1)C1CCC(c2ccnc(F)c2C)CC1 (single isomer, unassigned) [Example 27b, N-(1-((1s,4s)-4-(2-Fluoro-3-methylpyridin-4-yl)cyclohexyl)propyl)-6-methoxynicotinamide] | < 10 | 
CCC(NC(=O)c1ccc(OC)nc1)[C@H]1CC[C@@H](c2cc[nH]c(=O)c2C(F)F)CC1 (some centres unmarked) [Example 64-2, N-(1-((1s,4s)-4-(3-(difluoromethyl)-2-oxo-1,2-dihydropyridin-4-yl)cyclohexyl)propyl)-6-methoxynicotinamide] | > 100 | 
CCC(NC(=O)c1ccc(OC)nc1)[C@H]1CC[C@@H](c2nccc(C)n2)CC1 (single isomer, unassigned) [Example 49b, (±)-6-methoxy-N-(1-(4-(4-methylpyrimidin-2-yl)cyclohexyl)propyl)nicotinamide] |  | 30
CC[C@@H](NC(=O)c1cnc(OC)nc1)[C@H]1CC[C@@H](c2ccnc(OC)c2F)CC1 (single isomer, unassigned) [Example 21d, N-(1-(4-(3-Fluoro-2-methoxypyridin-4-yl)cyclohexyl)propyl)-2-methoxypyrimidine-5-carboxamide] |  | 380
CC[C@@H](NC(=O)c1ccc(OC)nc1)[C@H]1CC[C@@H](c2ccn(C)c(=O)c2)CC1 (single isomer, unassigned) [Example 31d, 6-Methoxy-N-(1-(4-(1-methyl-2-oxo-1,2-dihydropyridin-4-yl)cyclohexyl)propyl)nicotinamide] | > 100 | 
CCC(NC(=O)c1ccc(OC)nc1)C1CCC(c2ccnc3c(F)cc(F)cc23)CC1 (single isomer, unassigned) [Example 57c] |  | 130
COCC(NC(=O)c1ccc(OC)nc1)C1CCC(c2ccnc3ccc(F)cc23)CC1 (centres unmarked) [Example 14b, N-(1-((1s,4s)-4-(6-Fluoroquinolin-4-yl)cyclohexyl)-2-methoxyethyl)-6-methoxynicotinamide] |  | 10
CCC(NC(=O)c1ccc(OC)nc1)[C@H]1CC[C@@H](c2cc(C)ccn2)CC1 (single isomer, unassigned) [Example 45b, (±)-6-methoxy-N-(1-(4-(4-methylpyridin-2-yl)cyclohexyl)propyl)nicotinamide] |  | 620
